In general, inhibition in vivo refers to the drop in the measured response relative to a control, in per cent. What is called Ki is the dissociation constant of the complex between target and ligand, obtained from inhibition or displacement. As usually defined, the inhibition is the drop in the measured response relative to a control, in per cent.

Experiment [1] relates to Meriones unguiculatus. Nature of the experiment: Inhibition of GR-73632-induced foot tapping in Mongolian gerbil assessed as decrease in duration of foot tapping at 1 mg/kg, po after 4 hrs. The class given is functional.
A further experiment concerns the target Substance-P receptor (Homo sapiens, UniProt P25103). The experiment is described as follows: Displacement of [3H]Sar-Met substance P from human recombinant NK1 receptor expressed in CHO cells. The class given is cell-based. (In general: Loss of bound radioactivity is the signal in a displacement assay; it reports binding, not function.)
The subject of experiment [2] is Meriones unguiculatus. Nature of the experiment: Inhibition of GR-73632-induced foot tapping in Mongolian gerbil assessed as decrease in duration of foot tapping at 1 mg/kg, po after 2 hrs. Type of experiment: functional.
In experiment [3] the test system is Meriones unguiculatus. Nature of the experiment: Inhibition of GR-73632-induced foot tapping in Mongolian gerbil assessed as decrease in duration of foot tapping at 1 mg/kg, po after 6 hrs. Type of experiment: functional.
Experiment [4] addresses T1, Neuromedin-K receptor (Homo sapiens) (UniProt P29371).
T1 sequence (whole entry): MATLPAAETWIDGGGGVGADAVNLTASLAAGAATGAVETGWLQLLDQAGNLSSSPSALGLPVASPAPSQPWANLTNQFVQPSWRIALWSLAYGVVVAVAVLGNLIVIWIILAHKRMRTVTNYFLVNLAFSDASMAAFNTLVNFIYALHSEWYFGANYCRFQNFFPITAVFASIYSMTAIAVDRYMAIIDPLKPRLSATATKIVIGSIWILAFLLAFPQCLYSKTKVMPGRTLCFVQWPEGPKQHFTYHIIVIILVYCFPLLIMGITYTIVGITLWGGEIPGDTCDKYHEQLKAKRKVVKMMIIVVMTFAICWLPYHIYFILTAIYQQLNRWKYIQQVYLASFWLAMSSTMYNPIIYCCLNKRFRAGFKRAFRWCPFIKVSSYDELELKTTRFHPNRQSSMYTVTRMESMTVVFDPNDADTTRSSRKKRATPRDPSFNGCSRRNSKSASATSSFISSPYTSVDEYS
Nature of the experiment: Displacement of [125I]neurokinin B from human recombinant NK3 receptor expressed in CHO cells at 10 uM. Type of experiment: cell-based.

Experiment [5] has as its target T2, Substance-K receptor (Homo sapiens) (UniProt P21452).
T2 sequence (whole entry): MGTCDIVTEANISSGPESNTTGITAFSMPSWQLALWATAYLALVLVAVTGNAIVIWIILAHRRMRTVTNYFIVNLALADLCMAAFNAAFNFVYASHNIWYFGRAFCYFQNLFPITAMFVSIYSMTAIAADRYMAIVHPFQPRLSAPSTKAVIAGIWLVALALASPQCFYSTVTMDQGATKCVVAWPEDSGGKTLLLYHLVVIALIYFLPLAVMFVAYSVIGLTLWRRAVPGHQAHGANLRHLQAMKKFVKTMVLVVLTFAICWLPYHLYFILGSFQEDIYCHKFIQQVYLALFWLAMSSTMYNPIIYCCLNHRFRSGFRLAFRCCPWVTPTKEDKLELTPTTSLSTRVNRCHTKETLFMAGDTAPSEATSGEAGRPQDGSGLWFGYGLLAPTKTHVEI
Nature of the experiment: Displacement of [3H]Neurokinin A from human recombinant NK2 receptor expressed in CHO cells at 3 uM. Type of experiment: cell-based.

The next experiment has as its target T3, Neuromedin-K receptor (Homo sapiens, UniProt P29371).
T3 sequence (P29371 whole entry): T1 sequence (whole entry)
Nature of the experiment: Displacement of [125I]neurokinin B from human recombinant NK3 receptor expressed in CHO cells. Type of experiment: cell-based.

Sequence of Substance-P receptor (P25103 whole entry): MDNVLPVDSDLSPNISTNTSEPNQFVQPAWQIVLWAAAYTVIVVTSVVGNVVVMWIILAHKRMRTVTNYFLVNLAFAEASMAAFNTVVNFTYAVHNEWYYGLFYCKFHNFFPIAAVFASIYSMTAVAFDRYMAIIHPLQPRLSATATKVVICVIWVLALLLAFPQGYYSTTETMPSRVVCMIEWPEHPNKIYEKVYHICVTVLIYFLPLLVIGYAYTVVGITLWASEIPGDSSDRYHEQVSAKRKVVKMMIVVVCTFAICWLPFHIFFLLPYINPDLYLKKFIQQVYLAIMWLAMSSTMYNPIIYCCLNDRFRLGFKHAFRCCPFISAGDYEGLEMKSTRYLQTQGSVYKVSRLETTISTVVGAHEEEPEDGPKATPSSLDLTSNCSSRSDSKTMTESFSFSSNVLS

`C[C@H]1C[C@@](CO[C@H](C)c2cc(C(F)(F)F)cc(C(F)(F)F)c2)(c2ccccc2)NC1=O`: the results for the inhibition in vivo at 1 mg/kg in the experiment with Meriones unguiculatus [1], with Meriones unguiculatus [2] and in the experiment with Meriones unguiculatus [3] were 85%, 77% and 44%, respectively. For the same compound, the Ki at Substance-P receptor was 0.7 nM.
As to `CCC(=O)N[C@@H]1C[C@@](CO[C@H](C)c2cc(C(F)(F)F)cc(C(F)(F)F)c2)(c2ccccc2)NC1=O`, the inhibition in vivo at 1 mg/kg was 16% in the experiment with Meriones unguiculatus [1], 83% in the experiment with Meriones unguiculatus [2] and 19% in the experiment with Meriones unguiculatus [3]. Also, on Substance-P receptor, the Ki stood at 0.3 nM.
In the case of `C[C@@H](OC[C@@]1(c2ccccc2)C[C@@H](N2CCCC2=O)C(=O)N1)c1cc(C(F)(F)F)cc(C(F)(F)F)c1`, the inhibition in vivo at 1 mg/kg came to 46% in the experiment on Meriones unguiculatus [1], 49% in the experiment on Meriones unguiculatus [2] and 39% in the experiment with Meriones unguiculatus [3]. The Ki at Substance-P receptor turned out to be 0.5 nM.
In the same order, the values of `C[C@@H](OC[C@@]1(c2ccccc2)C[C@@H](N2CCCCC2=O)C(=O)N1)c1cc(C(F)(F)F)cc(C(F)(F)F)c1` are 26%, 20%, 56% and 0.2 nM.
Regarding `CC(=O)N[C@H]1C[C@@](CO[C@H](C)c2cc(C(F)(F)F)cc(C(F)(F)F)c2)(c2ccccc2)NC1=O`, the inhibition in vivo at 1 mg/kg came to 94% in the experiment with Meriones unguiculatus [1], 94% with Meriones unguiculatus [2] and 91% in the experiment with Meriones unguiculatus [3]. The inhibition turned out to be 43% in experiment [4] and 1.4% in experiment [5]. The inhibitory constant (Ki) on Substance-P receptor was found to be 0.3 nM.
On to `C[C@@H](OC[C@@]1(c2ccccc2)CC(O)C(=O)N1)c1cc(C(F)(F)F)cc(C(F)(F)F)c1` (stereo partly drawn), for which the values for the inhibition in vivo at 1 mg/kg in the experiment with Meriones unguiculatus [1], with Meriones unguiculatus [2] and in the experiment on Meriones unguiculatus [3] were 35%, 27% and 1%, respectively. On Substance-P receptor, the Ki worked out at 0.5 nM.
In the case of `C[C@@H](OC[C@@]1(c2ccccc2)C[C@@H](NS(C)(=O)=O)C(=O)N1)c1cc(C(F)(F)F)cc(C(F)(F)F)c1`, the inhibition in vivo at 1 mg/kg in the experiment with Meriones unguiculatus [1] was found to be 15%; in the experiment with Meriones unguiculatus [2], 0%; in the experiment on Meriones unguiculatus [3], 0%. The Ki on Substance-P receptor amounted to 2.6 nM.
Consider `CC(=O)N[C@@H]1C[C@@](CO[C@H](C)c2cc(C(F)(F)F)cc(C(F)(F)F)c2)(c2ccccc2)NC1=O`, for which the inhibition in vivo at 1 mg/kg with Meriones unguiculatus [1] came out at 97%; with Meriones unguiculatus [2] it was 80%; in the experiment on Meriones unguiculatus [3] it was 71%. In addition, the Ki on Substance-P receptor worked out at 0.9 nM.
`C[C@@H](OC[C@@]1(c2ccccc2)C[C@H](N2CCCC2)C(=O)N1)c1cc(C(F)(F)F)cc(C(F)(F)F)c1`: the inhibition in vivo at 1 mg/kg in the experiment on Meriones unguiculatus [1] is 60%; with Meriones unguiculatus [2] it was 78%; with Meriones unguiculatus [3], 45%. On Substance-P receptor, the Ki was determined as 0.4 nM.
Consider `CCC(=O)N[C@H]1C[C@@](CO[C@H](C)c2cc(C(F)(F)F)cc(C(F)(F)F)c2)(c2ccccc2)NC1=O`, for which the results for the inhibition in vivo at 1 mg/kg with Meriones unguiculatus [1], with Meriones unguiculatus [2] and in the experiment with Meriones unguiculatus [3] were 97%, 84% and 90%, respectively. Besides, at Substance-P receptor, the Ki was 0.3 nM.
Take `C[C@@H](OC[C@@]1(c2ccccc2)CCC(=O)N1)c1cc(C(F)(F)F)cc(C(F)(F)F)c1`: the inhibition in vivo at 1 mg/kg with Meriones unguiculatus [1] was determined as 78%; in the experiment on Meriones unguiculatus [2] it was 92%; with Meriones unguiculatus [3], 47%. The Ki on Substance-P receptor is 0.6 nM; at Neuromedin-K receptor, 3810 nM. Also, the inhibition in experiment [5] was found to be 0.1%.
Take `C[C@@H](OC[C@@]1(c2ccccc2)CNC(=O)N1)c1cc(C(F)(F)F)cc(C(F)(F)F)c1`: the figures for the inhibition in vivo at 1 mg/kg in the experiment with Meriones unguiculatus [1], in the experiment on Meriones unguiculatus [2] and with Meriones unguiculatus [3] were 57%, 35% and 48%, respectively.
For `C[C@@H](OC[C@@]1(c2ccccc2)C[C@H](N2CCCCC2=O)C(=O)N1)c1cc(C(F)(F)F)cc(C(F)(F)F)c1`, the inhibition in vivo at 1 mg/kg in the experiment on Meriones unguiculatus [1] amounted to 37%; with Meriones unguiculatus [2], 74%; in the experiment with Meriones unguiculatus [3] it was 63%. Moreover, the Ki on Substance-P receptor is 0.2 nM.
Take `C[C@@H]1C[C@@](CO[C@H](C)c2cc(C(F)(F)F)cc(C(F)(F)F)c2)(c2ccccc2)NC1=O`: the inhibition in vivo at 1 mg/kg with Meriones unguiculatus [1] is 2%; in the experiment on Meriones unguiculatus [2] it was 11%; in the experiment with Meriones unguiculatus [3], 36%. Besides, the Ki at Substance-P receptor came out at 2 nM.
In the case of `C[C@@H](OC[C@@]1(c2ccccc2)C[C@H](NS(C)(=O)=O)C(=O)N1)c1cc(C(F)(F)F)cc(C(F)(F)F)c1`, the inhibition in vivo at 1 mg/kg in the experiment on Meriones unguiculatus [1] stood at 58%; in the experiment on Meriones unguiculatus [2], 10%; in the experiment on Meriones unguiculatus [3], 43%. For the same compound, the Ki at Substance-P receptor stood at 0.6 nM.
For `C[C@@H](OC[C@@]1(c2ccccc2)CC(N)C(=O)N1)c1cc(C(F)(F)F)cc(C(F)(F)F)c1` (stereo partly drawn), the values for the inhibition in vivo at 1 mg/kg in the experiment with Meriones unguiculatus [1], with Meriones unguiculatus [2] and in the experiment on Meriones unguiculatus [3] were 13%, 5% and 11%, respectively. In addition, the Ki at Substance-P receptor is 0.4 nM.
On to `C[C@@H](OC[C@@]1(c2ccccc2)C[C@H](N2CCCC2=O)C(=O)N1)c1cc(C(F)(F)F)cc(C(F)(F)F)c1`, for which the inhibition in vivo at 1 mg/kg in the experiment with Meriones unguiculatus [1] worked out at 100%; in the experiment with Meriones unguiculatus [2], 100%; with Meriones unguiculatus [3], 98%. The Ki on Substance-P receptor was 0.2 nM; at Neuromedin-K receptor, 1250 nM. Also, in experiment [5], the inhibition is 28%.
